Data as given in article PMC8688152, “Distinct classes of potassium channels fused to GPCRs as electrical signaling biosensors” (Cell Reports Methods, 2021).

What was measured:
[1] = test system: M2[T4L]_T-00-43; test: TEVC recording of G protein-uncoupled M2[T4L]_T-00-43; type: cell-based, human (M2), mouse (TREK-1); settings: 5 μM ACh
Description: (§1) Microelectrodes were filled with […]. […] The membrane voltage was clamped to −50 mV.

[2] = test system: Kir3.4T (Kir3.4(S143T)) co-expressed with M2_T constructs; test: G protein activation assay: Kir3.4T co-expressed with M2_T ICCRs (TEVC); type: cell-based, Xenopus oocytes; settings: 5 μM ACh
Description: as §1

[3] = biological target: T1, M2_T-00-40 (UniProt P08172+P97438); test: TEVC recording of M2_T-00-40 ICCR in Xenopus oocytes; type: cell-based, human (M2), mouse (TREK-1); settings: 91 mM K+, Vm = −50 mV, mean ± SEM
T1 construct: full-length (−00) or M2 deleted of its last nine residues (−09) in the indicated ICCRs; expressed in transfected cells; host or cells: Xenopus oocytes (mRNA injection)
Description: as §1

[4] = biological target: T2, M2_T-00-46 (UniProt P08172+P97438); test: TEVC recording of M2_T-00-46 ICCR in Xenopus oocytes; type: cell-based, human (M2), mouse (TREK-1); settings: 91 mM K+, Vm = −50 mV, mean ± SEM
T2 construct: full-length (−00) or M2 deleted of its last nine residues (−09) in the indicated ICCRs; expressed in transfected cells; host or cells: Xenopus oocytes (mRNA injection); gene synthesized by GeneCust
Description: as §1

[5] = biological target: unfused Kcv (Paramecium bursaria Chlorella virus 1, UniProt Q84568); test: TEVC controls: unfused Kcv co-expressed with M2, and Kcv alone; type: cell-based; settings: co-expression of unfused M2 and Kcv, and Kcv alone
Description: as §1

[6] = biological target: T3, M2_T-09-43 (UniProt P08172+P97438); test: TEVC recording of M2_T-09-43 in Xenopus oocytes; type: cell-based, human (M2), mouse (TREK-1); settings: ACh 5 μM
T3 construct: expressed in transfected cells; host or cells: Xenopus oocytes (mRNA injection); gene synthesized by ATG:biosynthetics
Description: as §1

[7] = biological target: T4, M2_T-00-43 S300A S333A (UniProt P08172+P97438, S315A/S348A); test: TEVC recording of phosphorylation-deficient M2_T-00-43 S300A S333A; type: cell-based, human (M2), mouse (TREK-1); settings: ACh 5 μM
T4 construct: full-length (−00) or M2 deleted of its last nine residues (−09) in the indicated ICCRs; expressed in transfected cells; host or cells: Xenopus oocytes (mRNA injection); gene synthesized by GeneCust
Description: as §1

[8] = test system: M2_Kir6.2-09-25; set-up: method as in Moreau et al., 2017; settings: Kir6.2 ICCRs; ref Moreau et al., 2017; read-out: IC50 observed with Kir6.2 ICCRs; cited from earlier work
[9] = biological target: T5, M2_T(G293E)-00-40 (UniProt P08172+P97438, G308E); type: cell-based, human (M2), mouse (TREK-1); settings: ACh 5 μM; TEVC, Xenopus oocytes; mean ± SEM
T5 construct: full-length (−00) or M2 deleted of its last nine residues (−09) in the indicated ICCRs; expressed in transfected cells; host or cells: Xenopus oocytes (mRNA injection)
Description: as §1

[10] = test system: I252T mutant of M2_T-00-40; type: cell-based, human (M2), mouse (TREK-1); settings: ACh 5 μM; I252T versus WT M2_T-00-40
Description: (§2) Xenopus oocytes were prepared as previously reported ([Moreau et al., 2008]). Briefly, after surgical retrieval, the oocytes were defolliculated by type 1A collagenase. Each oocyte was injected with 50 nl of RNAse-free water containing the desired mRNAs. The mRNA quantities used per oocyte were: ICCR with Kcv, 2.7 ng (M2_Kcv and D2_Kcv) and 2.9 ng (OXTR_Kcv); ICCR with mTREK-1, 4.2 ng; ICCR with Kir6.2, 4.3 ng; M2, 2.3 ng; D2, 2.2 ng; Kir3.4T, 2.2 ng; Kcv 0.46 ng and mTREK-1, 2.1 ng. Microinjected oocytes were incubated 2 to 3 days at 19°C in modified-Barth's solution (in mM: 1 KCl, 0.82 MgSO4, 88 NaCl, 2.4 NaHCO3, 0.41 CaCl2, 16 HEPES, pH 7.4) supplemented with 100 U.ml^−1 of penicillin and streptomycin and 0.1 mg.mL^−1 of gentamycin. Animal handling and experiments fully conformed to European regulations and were approved by the French Ministry of Higher Education and Research (APAFIS#4420-2016030813053199 v4 to CM). […]
(§3) Two-electrode voltage-clamp (TEVC) recordings were performed automatically with HiClamp robots (MultiChannel Systems). […] Ligand effects were measured in high potassium concentration buffer with the membrane potential clamped to −50 mV and at 19°C.
(§4) Change of potassium current induced by ligand was calculated either with the barium-sensitive currents as a 0-reference for Kcv-based ICCRs or with the currents in ND96 for mTREK-1 ICCRs. […]

[11] = biological target: T6, I252T mutant of M2_T-00-40 (UniProt P08172+P97438, I267T); type: cell-based, human (M2), mouse (TREK-1)
T6 construct: full-length (−00) or M2 deleted of its last nine residues (−09) in the indicated ICCRs; expressed in transfected cells; host or cells: Xenopus oocytes (mRNA injection)
Description: as §2, §3, §4

[12] = test system: M2_Kcv-09-xx constructs with larger deletions up to 12 residues; type: cell-based, human (M2), Paramecium bursaria chlorella virus 1 (Kcv); settings: ACh 5 μM, TEVC
Description: as §2, §3, §4

## CC(=O)OCC[N+](C)(C)C [ACh, acetylcholine]
[1]
  activation of G protein-uncoupled M2[T4L]_T-00-43 by ACh: still activated by ACh with the same amplitude as WT
[2]
  G protein activation (Kir3.4T) by M2_T-09-40 and -09-43: still able to activate Gi/o proteins
[2]; no significant differences between the four constructs
  activation of Kir3.4T co-expressed with M2_T-00-37, −40, −43 and −46: clear activation
[3]
  activation: % of current change induced by ACh 5 μM on M2_T-00-40: 20.2% ± 3.5%
[4]
  activation: % of current change induced by ACh 5 μM on M2_T-00-46: 35.2% ± 1.6%
[5]
  regulation of unfused Kcv by ACh: absence of regulation
[6]
  regulation of M2_T-09-43 by ACh: no significant regulation
[7]
  activation of the S300A S333A double mutant of M2_T-00-43 by ACh: preserved activation
[8]
  IC50: 1250 nM
[9]
  activation induced by ACh on the hyperactive G293E mutant of M2_T-00-40: 32.5% ± 3.6%
[10]
  increase of ACh-induced activation of the I252T mutant compared with the WT counterpart: more than 4 fold
[11]
  activation induced by ACh on the I252T mutant of M2_T-00-40: 84.7% ± 11.2%
[12]
  response of M2_Kcv-09 constructs with larger deletions up to 12 residues to ACh: did not yield significant responses
